# US4471131A, “Novel silyl esters of N-phosphonomethylglycine” (Monsanto Company, priority 1983, dated 1984)
# Legend:
# Experiment in all cases: post-emergence herbicidal activity, greenhouse
# Type in all cases: in vivo
# Conditions in all cases: Table II
# Barnyardgrass = system: Barnyardgrass
# Text: (§1) A good grade of top soil is placed in aluminum pans having holes in the bottom and compacted to a depth of 0.95 to 1.27 cm. from the top of the pan. A predetermined number of seeds of each of several dicotyledonous and moncotyledonous annual plant species and/or vegetative propagules for the perennial plant species were placed on the soil and pressed into the soil surface. The seeds and/or vegetative propagules are covered with soil and leveled. The pans are then placed on a sand bench in the greenhouse and watered from below as needed. After the plants reach the desired age (two to three weeks), each pan, except for the control pans, is removed individually to a spraying chamber and sprayed by means of an atomizer at the rates noted. In the spray solution is an amount of an emulsifying agent mixture to give a spray solution or suspension which contains about 0.4% by weight of the emulsifier. The spray solution or suspension contains a sufficient amount of the candidate chemical in order to give application rates corresponding to those set forth in the tables. The pans were returned to the greenhouse and watered as before and the injury to the plants as compared to the control is observed at approximately two and four weeks and the results recorded. In the tables, WAT means "weeks after treatment."
# (§2) The post-emergent herbicidal activity index used in Tables II and III is as follows:
# (§3) The plant species utilized in these tests are identified by letter in accordance with the following legend: […]
# Canada Thistle = system: Canada Thistle
# Text: as §1, §2, §3
# Cocklebur = system: Cocklebur
# Text: as §1, §2, §3
# Common Lambsquarters = system: Common Lambsquarters
# Text: as §1, §2, §3
# Downy Brome = system: Downy Brome
# Text: as §1, §2, §3
# Johnsongrass = system: Johnsongrass
# Text: as §1, §2, §3
# Morningglory = system: Morningglory
# Text: as §1, §2, §3
# Pennsylvania Smartweed = system: Pennsylvania Smartweed
# Text: as §1, §2, §3
# Quackgrass = system: Quackgrass
# Text: as §1, §2, §3
# Velvetleaf = system: Velvetleaf
# Text: as §1, §2, §3
# Yellow Nutsedge = system: Yellow Nutsedge
# Text: as §1, §2, §3
# [1] = 2 WAT, 5.6 kg/h, formulated immediately prior to treatment
# [2] = 2 WAT, 11.2 kg/h, formulated immediately prior to treatment
# [3] = 4 WAT, 5.6 kg/h, formulated immediately prior to treatment
# [4] = 4 WAT, 11.2 kg/h, formulated immediately prior to treatment
# [5] = 2 WAT, 5.6 kg/h, formulated in anhydrous tetrahydrofuran
# [6] = 2 WAT, 11.2 kg/h, formulated in anhydrous tetrahydrofuran
# [7] = 4 WAT, 5.6 kg/h, formulated in anhydrous tetrahydrofuran
# [8] = 4 WAT, 11.2 kg/h, formulated in anhydrous tetrahydrofuran
compound,measurement,setting,value
"CC(C)(C)[Si](C)(C)OC(=O)CNCP(=O)(O[Si](C)(C)C(C)(C)C)O[Si](C)(C)C(C)(C)C [Ex. 9, Glycine, N--((Bis[((1,1-Dimethylethyl)Dimethylsilyl)Oxy]Phosphinyl)Methyl),-(1,1-Dimethylethyl)Dimethylsilylester]",Plant Response Index (K),Barnyardgrass; [1],1 (25-49% inhibition)
same,Plant Response Index (K),Barnyardgrass; [2],1 (25-49% inhibition)
same,Plant Response Index (K),Barnyardgrass; [3],1 (25-49% inhibition)
same,Plant Response Index (K),Barnyardgrass; [4],2 (50-74% inhibition)
same,Plant Response Index (A),Canada Thistle; [1],1 (25-49% inhibition)
same,Plant Response Index (A),Canada Thistle; [2],1 (25-49% inhibition)
same,Plant Response Index (A),Canada Thistle; [3],2 (50-74% inhibition)
same,Plant Response Index (A),Canada Thistle; [4],1 (25-49% inhibition)
same,Plant Response Index (B),Cocklebur; [1],1 (25-49% inhibition)
same,Plant Response Index (B),Cocklebur; [2],2 (50-74% inhibition)
same,Plant Response Index (B),Cocklebur; [3],2 (50-74% inhibition)
same,Plant Response Index (B),Cocklebur; [4],2 (50-74% inhibition)
same,Plant Response Index (E),Common Lambsquarters; [1],0 (0-24% inhibition)
same,Plant Response Index (E),Common Lambsquarters; [2],0 (0-24% inhibition)
same,Plant Response Index (E),Common Lambsquarters; [3],1 (25-49% inhibition)
same,Plant Response Index (E),Common Lambsquarters; [4],2 (50-74% inhibition)
same,Plant Response Index (J),Downy Brome; [1],0 (0-24% inhibition)
same,Plant Response Index (J),Downy Brome; [2],1 (25-49% inhibition)
same,Plant Response Index (J),Downy Brome; [3],1 (25-49% inhibition)
same,Plant Response Index (J),Downy Brome; [4],1 (25-49% inhibition)
same,Plant Response Index (I),Johnsongrass; [1],1 (25-49% inhibition)
same,Plant Response Index (I),Johnsongrass; [2],1 (25-49% inhibition)
same,Plant Response Index (I),Johnsongrass; [3],1 (25-49% inhibition)
same,Plant Response Index (I),Johnsongrass; [4],1 (25-49% inhibition)
same,Plant Response Index (D),Morningglory; [1],2 (50-74% inhibition)
same,Plant Response Index (D),Morningglory; [2],2 (50-74% inhibition)
same,Plant Response Index (D),Morningglory; [3],2 (50-74% inhibition)
same,Plant Response Index (D),Morningglory; [4],2 (50-74% inhibition)
same,Plant Response Index (F),Pennsylvania Smartweed; [1],1 (25-49% inhibition)
same,Plant Response Index (F),Pennsylvania Smartweed; [2],1 (25-49% inhibition)
same,Plant Response Index (F),Pennsylvania Smartweed; [3],1 (25-49% inhibition)
same,Plant Response Index (F),Pennsylvania Smartweed; [4],1 (25-49% inhibition)
same,Plant Response Index (H),Quackgrass; [1],0 (0-24% inhibition)
same,Plant Response Index (H),Quackgrass; [2],0 (0-24% inhibition)
same,Plant Response Index (H),Quackgrass; [3],0 (0-24% inhibition)
same,Plant Response Index (H),Quackgrass; [4],0 (0-24% inhibition)
same,Plant Response Index (C),Velvetleaf; [1],1 (25-49% inhibition)
same,Plant Response Index (C),Velvetleaf; [2],2 (50-74% inhibition)
same,Plant Response Index (C),Velvetleaf; [3],1 (25-49% inhibition)
same,Plant Response Index (C),Velvetleaf; [4],2 (50-74% inhibition)
same,Plant Response Index (G),Yellow Nutsedge; [1],1 (25-49% inhibition)
same,Plant Response Index (G),Yellow Nutsedge; [2],1 (25-49% inhibition)
same,Plant Response Index (G),Yellow Nutsedge; [3],2 (50-74% inhibition)
same,Plant Response Index (G),Yellow Nutsedge; [4],2 (50-74% inhibition)
"Glycine, N-((Bis[((1,1-Dimethylethyl)Diphenylsilyl)oxy]-Phosphinyl)-Methyl)-, [(1,1-Dimethylethyl)Diphenylsilyl]Ester, (75%); Silanol, (1,1-Dimethylethyl)Diphenyl-, (25%-Mixture) [Ex. 4]",Plant Response Index (K),Barnyardgrass; [5],1 (25-49% inhibition)
same,Plant Response Index (K),Barnyardgrass; [6],1 (25-49% inhibition)
same,Plant Response Index (K),Barnyardgrass; [7],1 (25-49% inhibition)
same,Plant Response Index (K),Barnyardgrass; [8],1 (25-49% inhibition)
same,Plant Response Index (A),Canada Thistle; [5],0 (0-24% inhibition)
same,Plant Response Index (A),Canada Thistle; [6],2 (50-74% inhibition)
same,Plant Response Index (A),Canada Thistle; [7],0 (0-24% inhibition)
same,Plant Response Index (A),Canada Thistle; [8],2 (50-74% inhibition)
same,Plant Response Index (B),Cocklebur; [5],1 (25-49% inhibition)
same,Plant Response Index (B),Cocklebur; [6],2 (50-74% inhibition)
same,Plant Response Index (B),Cocklebur; [7],1 (25-49% inhibition)
same,Plant Response Index (B),Cocklebur; [8],2 (50-74% inhibition)
same,Plant Response Index (E),Common Lambsquarters; [5],0 (0-24% inhibition)
same,Plant Response Index (E),Common Lambsquarters; [6],2 (50-74% inhibition)
same,Plant Response Index (E),Common Lambsquarters; [7],0 (0-24% inhibition)
same,Plant Response Index (E),Common Lambsquarters; [8],3 (75-99% inhibition)
same,Plant Response Index (J),Downy Brome; [5],0 (0-24% inhibition)
same,Plant Response Index (J),Downy Brome; [6],0 (0-24% inhibition)
same,Plant Response Index (J),Downy Brome; [7],0 (0-24% inhibition)
same,Plant Response Index (J),Downy Brome; [8],0 (0-24% inhibition)
same,Plant Response Index (I),Johnsongrass; [5],0 (0-24% inhibition)
same,Plant Response Index (I),Johnsongrass; [6],0 (0-24% inhibition)
same,Plant Response Index (I),Johnsongrass; [7],0 (0-24% inhibition)
same,Plant Response Index (I),Johnsongrass; [8],1 (25-49% inhibition)
same,Plant Response Index (D),Morningglory; [5],1 (25-49% inhibition)
same,Plant Response Index (D),Morningglory; [6],2 (50-74% inhibition)
same,Plant Response Index (D),Morningglory; [7],1 (25-49% inhibition)
same,Plant Response Index (D),Morningglory; [8],2 (50-74% inhibition)
same,Plant Response Index (F),Pennsylvania Smartweed; [5],1 (25-49% inhibition)
same,Plant Response Index (F),Pennsylvania Smartweed; [6],2 (50-74% inhibition)
same,Plant Response Index (F),Pennsylvania Smartweed; [7],0 (0-24% inhibition)
same,Plant Response Index (F),Pennsylvania Smartweed; [8],2 (50-74% inhibition)
same,Plant Response Index (H),Quackgrass; [5],0 (0-24% inhibition)
same,Plant Response Index (H),Quackgrass; [6],1 (25-49% inhibition)
same,Plant Response Index (H),Quackgrass; [7],0 (0-24% inhibition)
same,Plant Response Index (H),Quackgrass; [8],2 (50-74% inhibition)
same,Plant Response Index (C),Velvetleaf; [5],0 (0-24% inhibition)
same,Plant Response Index (C),Velvetleaf; [6],1 (25-49% inhibition)
same,Plant Response Index (C),Velvetleaf; [7],0 (0-24% inhibition)
same,Plant Response Index (C),Velvetleaf; [8],1 (25-49% inhibition)
same,Plant Response Index (G),Yellow Nutsedge; [5],0 (0-24% inhibition)
same,Plant Response Index (G),Yellow Nutsedge; [6],0 (0-24% inhibition)
same,Plant Response Index (G),Yellow Nutsedge; [7],1 (25-49% inhibition)
same,Plant Response Index (G),Yellow Nutsedge; [8],2 (50-74% inhibition)
